US10022459B2, “Medical tissue-marker and manufacturing method for the same” (NATIONAL UNIVERSITY CORPORATION CHIBA UNIVERSITY, priority 2011, dated 2018)

Experiments:
[1] = test system: submucosal layer of the stomach wall of a pig; assay: Local injection into submucosal layer of the stomach wall of a pig, fluorescent laparoscope view from the outside of the stomach; format: in vivo
Description: Then, the fabricated clusters were injected into biological tissue and the result thereof was confirmed. Specifically, submucosal layer of the stomach wall of a pig was a most suitable target of the marker administration. The fluid dispersion of 300 μl, including the clusters, was administrated on four points surrounding a metal clip placed inside the stomach by local injection.
The left and middle panels show conventional and fluorescent laparoscopic images immediately after local injection, respectively. […] It was confirmed that the clusters were sufficiently stable at the injection points. […] In this case, the exact injection positions were unclear immediately after injection as well as 6 hours after injection.
Herein, the stability was again confirmed 24 hours after the local injection of the marker. The submucosal layer of the stomach wall was a most suitable target of the marker administration. The fluid dispersion of 300 μl including clusters was administrated at two points surrounding a metal clip by local injection. The pig recovered from general anesthesia after the administration. Twenty-four hours later, laparoscopy was performed again under general anesthesia.
The optimum injection amount of the marker was verified. When the concentration of the clusters according to the example 1 was 100 μl or more, the injection points could be confirmed. The concentration thereof was preferably 200 μl or more, and is more preferably 300 μl or more. In FIG. 17, 50 μl was used. In FIG. 18, 100 μl was used. In FIG. 19, 200 μl was used. In FIG. 20, 300 μl was used.

[2] = test system: stomach of the pig; assay: Fluorescence imaging (near-infrared LED light) of the excised pig stomach after marker administration; format: in vivo; conditions: 32 hours after administration, 300 μl each at four points
Description: Then, the stomach of the pig was excised, and fluorescence and X-ray CT imaging was performed 32 hours after the marker (300 μl each at four points around a metal clip) administration.

CC1(C)C(/C=C/C=C/C=C/C=C2\N(CCCCS(=O)(=O)O)c3ccc4ccccc4c3C2(C)C)=[N+](CCCCS(=O)(=O)[O-])c2ccc3ccccc3c21 [ICG aqueous solution, indocyanine green]
identification of injection points in fluorescent laparoscopic image ([1]; 6 hours after local injection, 300 μl at four points): unclear
distinguishability of four closely located injection points by fluorescent laparoscope ([1]; 18 hours after administration, 300 μl at four points): impossible to distinguish
identification of injection points in fluorescent laparoscopic image ([1]; immediately after local injection): unclear
fluorescence pattern at the injection site [2]: broad diffusion of the fluorescence
